# According to paper PMC10587159, “Biosynthesis and engineering of the nonribosomal peptides with a C-terminal putrescine” (Nature Communications, 2023):
# Like-named read-outs stand apart in the source and are kept apart here. Non-standard residues stand in square brackets, D forms with d. Residues, ends and D or L forms follow the SMILES beside them. *: point of attachment. dMet(O) = CS(=O)CC[C@@H](N)C(=O)O; Lauroyl = CCCCCCCCCCCC(=O)*; Octanoyl = CCCCCCCC(=O)*; NH(CH2)4NH2 = NCCCCN*
# Tests used:
# [1] = system: S. brevitalea DSM 7029 wild type; test: Biofilm formation of DSM 7029 wild type with compounds (crystal violet); type: cell-based, Schlegelella brevitalea DSM 7029; conditions: relative to wild type treated with H2O = 100%; crystal violet 0.1%, OD600; mean of n = 3
# Method: The growth curve was tested by Bioscreen C (Labsystems, Finland) as follow. Overnight culture was inoculated into 400 μL fresh CYMG medium in the ratio of 1:100 (the concentration of compounds was 0.1 μg/μL) and shook in normal speed. The OD600 value was gained in every hour for 42 h in total. Biofilm formation was measured at 18 h and 36 h respectively, as reported previously. In brief, the free-floating cells were removed, and the microtitre plate was washed with PBS (pH 7.4) after incubation for 18 h and 36 h. The biofilm was stained by adding 200 µL of crystal violet (0.1%) solution. Crystal violet solution was removed after 15 min and 200 µL of ethanol (95%) was added. The absorbance at OD600 was read using a microplate reader (Infinite M200, Tecan, Männedorf, Switzerland). Meanwhile, free-floating cells were used to test the secretion of pigment. The bacteria were removed and the supernatant was measured at OD600.
# PvdQ-like acylase GdnD = test: Deacylation by acylase GdnD (cell lysate, LC-MS); type: biochemical, Schlegelella brevitalea DSM 7029; conditions: 100 μL E. coli cell lysate with GdnD, 5 μL 10 mM substrate, 30 °C; 7 and 8: 4 h, 16 h, 27 h; other substrates 16 h; boiled lysate as control
# Method: The hydrolysis function of PvdQ-like acylase GdnD was tested. GdnD is predicted to be a periplasmic protein by PSORTb[13]. The collected pellet from 50 mL LB dissolved with 8 mL buffer C (50 mM Tris, 300 mM NaCl, 5 mM MgCl2, pH 7.6), and lysed by cell disruption. Then, one hundred microliter of the cell lysate was incubated with 5 μL 10 mM substrates 7 and 8 for 4 h, 16 h, and 27 h at 30 °C. The negative control was boiled cell lysate. The other substrates (13, 14, 15, 16, and 17) incubated with the cell lysate dealt for 16 h at 30 °C. Then, the reaction was stopped by the addition of the 100 μL MeOH, and the final mixture was checked by LC‒MS analysis (5%‒95% ACN in 15 min) according to the above condition.
# [2] = system: human lung adenocarcinoma cell A549; test: MTT cytotoxicity assay, A549; type: cell-based
# Text: (§1) The two human acute lymphoblastic leukemia cells K562 and Kasumi, two human breast adenocarcinoma cells MCF7 and MDA-MB-231, human hepatoma cell HepG-2, human lung adenocarcinoma cell A549, human gastric cancer cell SGC-7901, human colon cancer cell HCT-116, human ovarian cancer cell line SKOV3, or human lung epithelial normal cell 2B were obtained from Beyotime Biotechnology and utilized to test the cytotoxicity of compounds by MTT assays as previous study. The anti-inflammatory effect of the compounds was detected by the influence on the increase in the level of nitric oxide caused by lipopolysaccharide (LPS) based on the classic Griess method. RAW 264.7 cells (Shanghai Institutes for Biological Science) were seeded in 96-well plates and incubated for 24 h. Then, cells were treated with compounds 29, 29a, 31, and 31a (0-80 μM) for 30 min, followed by co-treatment with LPS ([…]) for another 24 h. The Nitric Oxide assay kit with Griess reagents (Beyotime, Lot: S0021, Shanghai, China) was used to examine cellular supernatant nitrite accumulation, which represents cellular NO levels. The OD value of 540 nm absorbance was detected with a microplate reader. Their authentication in the laboratory was performed regularly based on morphology and gene/protein expression. The tested micro-organisms including Gram-negative bacteria E. coli ATCC 35218 and Pseudomonas aeruginosa ATCC 27853, and Gram-positive bacteria Staphylococcus aureus ATCC 29213 and B. subtilis ATCC 6633, and fungi Candida albicans, Rhizoctonia solani and Aspergillus fumigatus were treated with different concentrations of compounds (1 μM, 10 μM, 100 μM) using Bauer-Kirby disk diffusion method to evaluate the antimicrobial activities.
# [3] = system: human lung epithelial normal cell 2B; test: cells; type: cell-based
# Text: as §1
# [4] = system: human hepatoma cell HepG-2; test: cells; type: cell-based
# Text: as §1
# [5] = system: human breast adenocarcinoma cells MDA-MB-231; test: cells; type: cell-based
# Text: as §1
# [6] = system: C13 domain of GdnB fragments and mutants; test: Condensation of T12-linked L-Ala with Put or other diamines (yield of 24a-27a, LC-MS); type: biochemical, Schlegelella brevitalea DSM 7029; conditions: Average of n = 3
# Method: In vitro assays for the different enzymes of the C-terminal multi-domains were performed. Reaction buffer contained 80 μM protein, 3 μM Sfp from B. subtilis, 200 μM CoA, 2.5 mM L-Ala and 5 mM ATP was incubated at 30 °C for 30 min. Then, 2.5 mM diamines or polyamines (i.e. putrescine, 1,7-diaminoheptane, 1,6-diaminohexane, 1,5-diaminopentane, 1,2-diaminocyclohexane, spermine, and spermidine, respectively) was added to make final volume of 200 μL. The reaction was further incubated at 30 °C for 1 h or 4 h. Triple amount of cold methanol was added to quench the reaction, and the supernatant was dried by SpeedVac after removed the precipitate at 10,000 × g for 8 min. The reaction mixture was dissolved with 200 μL ddH2O, and then the mixture was derived with D-FDAA according to the procedure of the above Marfey’s analysis. The final reaction mixture was suspended using 100 μL 2 M HCl, which subsequently was dried by SpeedVac. Finally, the mixture dissolved with 100 μL MeOH to detect the target products (24a, 25a, 26a, and 27a) using LC‒MS analysis (5%‒95% ACN in 15 min).
# tumor lines = test: MTT cytotoxicity assay, statements on the whole panel; type: cell-based, human
# Text: as §1
# [7] = system: human ovarian cancer cell line SKOV3; test: cells; type: cell-based
# Text: as §1
# [8] = system: human acute lymphoblastic leukemia cells K562; test: cells; type: cell-based; conditions: Homo sapiens, K562; MTT assay; Supplementary Table 11; read-out: IC50 K562
# Text: as §1
# [9] = system: human breast adenocarcinoma cells MCF7; test: cells; type: cell-based; conditions: Homo sapiens, MCF7; MTT assay; Supplementary Table 11; read-out: IC50 MCF-7
# Text: as §1
# [10] = system: human colon cancer cell HCT-116; test: cells; type: cell-based; conditions: Homo sapiens, HCT-116; MTT assay; Supplementary Table 11; read-out: IC50 HCT116
# Text: as §1
# [11] = system: human gastric cancer cell SGC-7901; test: cells; type: cell-based; conditions: Homo sapiens, SGC-7901; MTT assay; Supplementary Table 11; read-out: IC50 SGC-7901
# Text: as §1
# human cells Kasumi = test: MTT cytotoxicity assay, Kasumi; type: cell-based; conditions: Homo sapiens; MTT assay; Supplementary Table 11; read-out: IC50 Kasumi
# Text: as §1
compound,measurement,setting,value
"CCCCCCCCCCCC(=O)N[C@H](CC[S+](C)[O-])C(=O)N[C@H](CC(N)=O)C(=O)N1CCC[C@H]1C(=O)N[C@H](C(=O)N[C@H](Cc1ccccc1)C(=O)N1CCC[C@H]1C(=O)N[C@@H](Cc1c[nH]c2ccccc12)C(=O)N[C@@H](C(=O)N[C@@H](C)C(=O)N[C@H](C)C(=O)N[C@@H](CO)C(=O)N[C@@H](C)C(=O)NCCCCN)C(C)C)C(C)C (stereo partly shown) [Compound 8, Glidonin H] (Lauroyl-[dMet(O)][dN]PV[dF]PW[dV]A[dA]SA-{NH(CH2)4NH2})","biofilm formation 18 h, Average",[1],153.143%
same,"biofilm formation 36 h, Average",[1],147.847%
same,"deacylation by GdnD, nonacylated product by LC-MS",PvdQ-like acylase GdnD,nonacylated products 1 and 2 were detected
same,IC50,[2]; 24 h,> 20 µM
same,IC50,[3]; 24 h,> 20 µM
same,IC50,[4]; 24 h,> 20 µM
same,IC50,[5]; 24 h,> 20 µM
CC(N)C(=O)NCCCCCCCNc1cc(NC(C)C(N)=O)c([N+](=O)[O-])cc1[N+](=O)[O-] (stereo not shown) [Compound 27a],"L-Ala condensing with Put, 1,5-diaminopentane, 1,6-diaminohexane, and 1,7-diaminoheptane (Relative Yield of product)",[6]; protein A12T12,100
same,"L-Ala condensing with Put, 1,5-diaminopentane, 1,6-diaminohexane, and 1,7-diaminoheptane (Relative Yield of product)",[6]; protein A12T12C13A*T13,248.895
CCCCCCCC(=O)N[C@@H](CC(C)C)C(=O)N[C@H](C(=O)N[C@@H](Cc1ccc(O)cc1)C(=O)N[C@H](C)C(=O)N[C@@H](C)C(=O)N[C@H](C)C(=O)N[C@H](C(=O)NCCCCN)C(C)C)[C@@H](C)O [Compound 29] (Octanoyl-LTY[dA]A[dA]V-{NH(CH2)4NH2}),cytotoxic / antitumor activity in words,tumor lines,higher anti-inflammatory and antitumor activities than 29a and 31a
same,IC50,tumor lines; 24 h,> 40 µM
same,IC50,[2]; 24 h,39.92 ± 0.15 µM
same,IC50,[3]; 24 h,102.4 ± 0.25 µM
same,IC50,[4]; 24 h,265.5 ± 2.43 µM
same,IC50,[5]; 24 h,110 ± 2.6 µM
same,IC50,[7]; 24 h,81.4 ± 1.02 µM
"CCCCCCCC(=O)N[C@@H](CC(C)C)C(=O)N[C@H](C(=O)N[C@@H](Cc1ccc(O)cc1)C(=O)N[C@H](C)C(=O)N[C@@H](C)C(=O)N[C@H](C)C(=O)N[C@H](C(=O)O)C(C)C)[C@@H](C)O [Compound 29a, octanoyl-L-Leu-L-Thr-L-Tyr-D-Ala-L-Ala-D-Ala-L-Val] (Octanoyl-LTY[dA]A[dA]V-OH)",IC50,[2]; 24 h,82.2 ± 2.58 µM
same,IC50,[3]; 24 h,269.4 ± 1.23 µM
same,IC50,[4]; 24 h,267.5 ± 0.01 µM
same,IC50,[7]; 24 h,161 ± 3.67 µM
CCCCCCCC(=O)N[C@H](C(=O)N[C@@H](Cc1ccccc1)C(=O)N[C@@H](CCC(=O)O)C(=O)N[C@H](C(=O)N[C@@H](C)C(=O)O)[C@@H](C)CC)C(C)C [Compound 31a] (Octanoyl-VFEIA-OH; C-terminus assumed),IC50,[2]; 24 h,453.4 ± 0.68 µM
same,IC50,[3]; 24 h,92.26 ± 0.03 µM
same,IC50,[4]; 24 h,94.29 ± 0.19 µM
same,IC50,[5]; 24 h,200.5 ± 0.07 µM
same,IC50 SKOV3,"[7]; MTT assay, Supplementary Table 12, n.s. indicates negative significance",n.s.
"COc1cccc2c1C(=O)c1c(O)c3c(c(O)c1C2=O)C[C@@](O)(C(=O)CO)C[C@@H]3O[C@H]1C[C@H](N)[C@H](O)[C@H](C)O1 [doxorubicin, reference compound]",IC50,"[2]; Homo sapiens, A549, MTT assay, Supplementary Table 11, read-out: IC50 A549",0.82 ± 0.25 µM
same,IC50,"[2]; Homo sapiens, A549, MTT assay, Supplementary Table 12, read-out: IC50 A549",0.73 ± 0.05 µM
same,IC50,"[3]; Homo sapiens, MTT assay, normal cell, Supplementary Table 11, read-out: IC50 2B",1.32 ± 0.11 µM
same,IC50,"[3]; Homo sapiens, MTT assay, normal cell, Supplementary Table 12, read-out: IC50 2B",1.34 ± 0.09 µM
same,IC50,[8],790 ± 340 nM
same,IC50,"[4]; Homo sapiens, HepG2, MTT assay, Supplementary Table 11, read-out: IC50 HepG2",3.21 ± 0.67 µM
same,IC50,"[4]; Homo sapiens, HepG2, MTT assay, Supplementary Table 12, read-out: IC50 HepG-2",0.23 ± 0.02 µM
same,IC50,"[5]; Homo sapiens, MDA-MB-231, MTT assay, Supplementary Table 11, read-out: IC50 MDA-MB-231",0.63 ± 0.07 µM
same,IC50,"[5]; Homo sapiens, MDA-MB-231, MTT assay, Supplementary Table 12, n.s. indicates negative significance, read-out: IC50 MDA-MB-231",0.91 ± 0.05 µM
same,IC50,[9],2600 ± 340 nM
same,IC50,[10],590 ± 40 nM
same,IC50,[11],140 nM
same,IC50,"[7]; Homo sapiens, SK-OV-3, MTT assay, Supplementary Table 12, n.s. indicates negative significance, read-out: IC50 SKOV3",1.29 ± 0.01 µM
same,IC50,human cells Kasumi,420 ± 100 nM
"C14-Rhizomide A [Compound 17, reference compound]","deacylation by GdnD, nonacylated product by LC-MS",PvdQ-like acylase GdnD,could remove myristoyl
